# Reference: article PMC11267547, “Advancing drug discovery through assay development: a survey of tool compounds within the human solute carrier superfamily” (Frontiers in Pharmacology, 2024)
# Key:
# SLC2A9 = SLC2A9 (Homo sapiens, UniProt Q9NRM0); test: Membrane potential dye-based assay, HEK293 cells stably expressing isoform-1 or -2 of SLC2A9 vs mock; format: cell-based; conditions: SLC2A9 isoform-1 or -2 cells compared with non-transduced (mock) cells
# Experimental: FLIPR Membrane Potential Blue Dye was used to detect the compound activities for those membrane transporters that are electrogenic or whose activity is associated with changes in membrane potential, as previously described ([Jensen and BräunerOsborne, 2004]). In brief, cells are seeded at cell line-specific density in black clear-bottom poly-D-Lysine-coated 384-well plates (Greiner Bio-One) in DMEM high-glucose medium with 10% FBS, 1% P/S, and 2 mM UltraGlutamine I (25 µL/well). Furthermore, 24 h after seeding, the culture medium is removed, and the cells are loaded with 20 µL/well of 0.5 X FMP Blue Dye in assay buffer (modified Tyrode’s buffer, 130 mM NaCl, 5 mM KCl, 1 mM MgCl2, 2 mM CaCl2, 5 mM NaHCO3, and 20 mM HEPES pH 7.4). The plates are subsequently incubated for at least 30 min at room temperature in the dark. Then, 10 µL/well of test compounds and controls is added at defined concentrations (0.5% DMSO final conc.) in the FLIPR TETRA instrument (Molecular Devices), and emitted fluorescence is recorded using a λexc 510–545-nm/λem 565–625-nm filter. The dose–response curves for the 19 compounds were prepared starting from 3 µM (final top concentration), the half-log serial dilution factor. For data analysis, Genedata Screener 19.0 software was used.
# ENT1 (SLC29A1) = molecular target: T1, ENT1 (SLC29A1) (Homo sapiens, UniProt Q99808); test: Displacement assay with [3H]NBTI on human erythrocyte membranes; format: binding; conditions: [3H]NBTI displacement on erythrocyte membranes and TRACT assay (Figure 1E, Supplementary Figure S1)
# T1 construct: from tissue; host or cells: human erythrocyte membranes
# Experimental: Displacement assay with [3H]NBTI on human erythrocyte membranes expressing ENT1 (SLC29A1) was performed at 25°C, as described previously ([Vlachodimou et al., 2020]).
# SLC28A2 (CNT2) = test: Impedance-based TRACT assay, HEK293–JumpIn–SLC28A2 cells, adenosine response; format: cell-based, human; conditions: 31.6 µM pretreatment, non-induced (-dox) cells
# SLC1A5 = molecular target: T2, SLC1A5 (Homo sapiens, UniProt Q15758); test: AspSnFR biosensor assay, asparagine uptake in HEK293 cells; format: cell-based; conditions: cells pretreated with 50 µM
# T2 construct: host or cells: HEK293 expressing AspSnFR, transiently transfected with gpASNase1
# Experimental: HEK293 cells expressing AspSnFR were transiently transfected with EBPF-gpASNase1, trypsinized, and resuspended in 10% dialyzed FCS/PBS. Post-treatment with test compounds or vehicle, varying concentrations of asparagine were added. After a 30-min incubation at room temperature, flow cytometry analysis was performed using the BD LSR Fortessa X-20, following the protocol previously described ([Hellweg et al., 2024]).
# [1] = system: all proteins (SLCs and non-SLCs); test: Selectivity entropy score against all proteins (S_other); parameters: species or system human
# Experimental: (§1) To assess the selectivity, a selectivity entropy score ([Uitdehaag and Zaman, 2011]) was implemented in KNIME. The entropy score was calculated twice for each compound, first against all SLCs (S_SLCs) and then against all proteins (S_other). Ideally, a low entropy value indicates a high selectivity of the inhibitor. However, as the inhibitors were not tested on a full panel of targets, but often only against one to three proteins, a low entropy value might not reflect its true selectivity. Therefore, Pareto ranking was performed using the corresponding node from the Erlwood KNIME open-source cheminformatics KNIME community extension. This ranking minimizes S_SLCs and S_other while maximizing the activity value and the count of SLCs the inhibitor was tested on.
# MPC2 = system: MPC2; parameters: method as in GtoPdb 3023, PubMed 35278701; conditions: negative logarithm of the Molar value of IC50, Ki, EC50, and Kd values; ref GtoPdb 3023, PubMed 35278701; cited from earlier work
# all SLCs = test: Selectivity entropy score against all SLCs (S_SLCs); parameters: species or system human; conditions: selectivity entropy score for all activity values against SLCs
# Experimental: as §1
# PDE5A = system: PDE5A; parameters: method as in ChEMBL; conditions: negative logarithm of the Molar value; ref ChEMBL; cited from earlier work
# PDE10A = system: PDE10A; parameters: method as in ChEMBL; conditions: negative logarithm of the Molar value; ref ChEMBL; cited from earlier work
# GPR35 = system: GPR35; parameters: method as in ChEMBL; conditions: negative logarithm of the Molar value; ref ChEMBL; cited from earlier work
# PDE1C = system: PDE1C; parameters: method as in ChEMBL; conditions: negative logarithm of the Molar value; ref ChEMBL; cited from earlier work
# T1 sequence (Q99808 whole entry): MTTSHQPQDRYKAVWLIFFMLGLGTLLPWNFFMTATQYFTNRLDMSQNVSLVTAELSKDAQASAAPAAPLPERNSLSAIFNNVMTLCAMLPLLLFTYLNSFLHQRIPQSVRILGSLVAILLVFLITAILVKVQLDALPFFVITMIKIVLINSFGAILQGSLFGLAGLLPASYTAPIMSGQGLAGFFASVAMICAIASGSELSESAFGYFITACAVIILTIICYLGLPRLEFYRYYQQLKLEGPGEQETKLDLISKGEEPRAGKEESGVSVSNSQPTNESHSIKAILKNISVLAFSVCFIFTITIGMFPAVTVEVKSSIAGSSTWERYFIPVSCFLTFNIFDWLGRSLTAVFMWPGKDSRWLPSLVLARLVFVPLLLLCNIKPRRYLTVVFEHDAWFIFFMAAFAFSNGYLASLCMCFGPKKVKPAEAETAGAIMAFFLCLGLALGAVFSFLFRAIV
# T2 sequence (Q15758 whole entry): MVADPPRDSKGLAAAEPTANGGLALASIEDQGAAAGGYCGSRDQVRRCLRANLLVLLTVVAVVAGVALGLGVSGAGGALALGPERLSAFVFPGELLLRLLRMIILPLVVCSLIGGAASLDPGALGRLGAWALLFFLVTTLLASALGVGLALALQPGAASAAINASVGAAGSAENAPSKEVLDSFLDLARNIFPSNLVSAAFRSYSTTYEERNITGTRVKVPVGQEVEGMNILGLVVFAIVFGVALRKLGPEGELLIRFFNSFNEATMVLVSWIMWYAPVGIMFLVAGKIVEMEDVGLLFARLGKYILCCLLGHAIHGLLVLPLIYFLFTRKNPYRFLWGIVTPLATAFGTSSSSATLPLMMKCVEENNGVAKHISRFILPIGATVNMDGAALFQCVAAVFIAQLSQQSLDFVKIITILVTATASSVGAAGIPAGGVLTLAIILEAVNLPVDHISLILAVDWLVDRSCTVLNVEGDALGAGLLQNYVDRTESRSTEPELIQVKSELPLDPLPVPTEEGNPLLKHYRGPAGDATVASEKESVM
# Sequence of SLC2A9 (Q9NRM0 51-540 limits assumed): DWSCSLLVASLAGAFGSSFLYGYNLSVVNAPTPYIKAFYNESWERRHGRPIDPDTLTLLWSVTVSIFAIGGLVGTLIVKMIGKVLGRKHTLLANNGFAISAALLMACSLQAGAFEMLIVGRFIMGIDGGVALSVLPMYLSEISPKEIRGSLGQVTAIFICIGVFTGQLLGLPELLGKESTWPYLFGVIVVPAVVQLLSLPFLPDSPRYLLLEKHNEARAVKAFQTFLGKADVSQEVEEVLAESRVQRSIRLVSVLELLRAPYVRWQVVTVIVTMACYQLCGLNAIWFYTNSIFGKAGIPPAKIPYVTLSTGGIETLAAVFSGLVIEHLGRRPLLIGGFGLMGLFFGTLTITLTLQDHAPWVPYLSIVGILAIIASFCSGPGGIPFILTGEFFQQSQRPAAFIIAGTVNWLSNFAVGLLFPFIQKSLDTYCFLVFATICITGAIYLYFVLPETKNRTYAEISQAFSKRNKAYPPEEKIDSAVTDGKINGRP
smiles,measurement,setting,value
CCc1oc2ccccc2c1C(=O)c1cc(Br)c(O)c(Br)c1 [Benzbromarone],effect in SLC2A9 membrane potential dye assay vs mock cells,SLC2A9,unspecific SLC2A9-independent effect
Nc1ncnc2c1nc(NCc1ccc(-c3ccccc3)cc1)n2[C@@H]1O[C@H](CO)[C@@H](O)[C@H]1O [CNT2 inhibitor 1],inhibition of SLC29A1,ENT1 (SLC29A1),also inhibited SLC29A1
same,selectivity for SLC28A2 in the TRACT assay,SLC28A2 (CNT2),not selective
Cc1cccc(COc2ccccc2CN(CC[C@H](N)C(=O)O)Cc2ccccc2OCc2cccc(C)c2)c1 [V-9302],effect in SLC1A5 asparagine uptake assay,SLC1A5,no effect
O=C1CN(/N=C/c2ccc([N+](=O)[O-])o2)C(=O)N1 [nitrofurantoin],S_other,[1],0
same,primary_SLC_act (MPC2),MPC2,5.48
same,S_SLCs,all SLCs,0
CCCOc1ccccc1-c1nc2nn[nH]c2c(=O)[nH]1 [zaprinast],other_targets_act (PDE5A),PDE5A,5.95
same,S_other,[1],1.11
same,primary_SLC_act (MPC2),MPC2,6.52
same,other_targets_act (PDE10A),PDE10A,4.66
same,other_targets_act (GPR35),GPR35,5.71
same,S_SLCs,all SLCs,0
same,other_targets_act (PDE1C),PDE1C,4.89
